Measurements taken from patent US6699459B2, “Methods of treating lung inflammation” (The Board of Regents of the University of Texas System, priority 2001, dated 2004).
Entries after “also recorded” stand apart in the source; their conditions may differ.

Experiments:
RANTES [1] = assay: RSV-induced RANTES secretion in A549 cells (ELISA); assay type: cell-based, human; conditions: A549 cells
Procedure: (§1) Cell culture and infection of epithelial cells with RSV. A549, human alveolar type II-like epithelial cells (ATCC, Manassas, Va.), were maintained in F12K medium containing 10% (v/v) fetal bovine serum (FBS), 10 mM glutamine, 100 IU/ml penicillin and 100 μg/ml streptomycin. Small alveolar epithelial cells (SAE) were obtained from Clonetics (San Diego, Calif.) and grown according to the company instructions. Cell monolayers were infected with RSV at multiplicity of infection (MOI) of 1 (unless otherwise stated), as described (17). An equivalent amount of a 20% sucrose solution was added to uninfected A549 cells, as a control. For the antioxidant experiments, cells were pretreated with the antioxidants for one hour and then infected in the presence of the antioxidants. Since BHA was diluted in ethanol, equal amounts of ethanol were added to untreated cells, as a control. Total number of cells, cell viability and viral replication, following antioxidant treatment, were measured by trypan blue exclusion and by plaque assay, respectively. RANTES ELISA. Immunoreactive RANTES was quantitated by a double antibody ELISA kit (DuoSet, R&D Systems, Minneapolis, Minn.) following the manufacturer's protocol.

RANTES [2] = assay: RSV-induced RANTES secretion in SAE cells (ELISA); assay type: cell-based, human
Procedure: as §1

human RANTES promoter = assay: RANTES promoter luciferase reporter in RSV-infected A549 cells; assay type: cell-based; conditions: RSV 24 hours, 400 μM
Description: Plasmid construction and cell transfection. A fragment of the human RANTES promoter spanning from −220 to +55 nucleotides (nt), relative to the mRNA start site designated +1 was cloned into the luciferase reporter gene vector pGL2 (Promega, Madison, Wis.) and defined as pGL2-220. Site mutations of the RANTES ISRE in the context of pGL2-220 plasmid were introduced by PCR using the following upstream and downstream mutagenic primers (mutations in lower cases): […]
Logarithmically growing A549 cells were transfected in triplicate in 60 mm petri dishes by DEAE-Dextran, as previously described (20). Cells were incubated in 2 ml of HEPES buffered Dulbecco's modified Eagle's medium (DMEM) (10 mM Hepes, pH 7.4) containing 20 μl of 60 mg/ml DEAE-Dextran (Amersham Pharmacia Biotec, Arlington Heights, Ill.) premixed with 6 μg of RANTES-pGL2 plasmids and 1 μg cytomegalovirus (CMV)-β galactosidase internal control plasmid. After 3 hours, media was removed and 0.5 ml of 10% (v/v) DMSO in phosphate buffered saline (PBS) was added to the cells for 2 minutes. Cells were washed with PBS and cultured overnight in 10% FBS/DMEM. The next morning, cells were infected with RSV and at 24 hours post-infection cells were lysed to measure independently luciferase and β-galactosidase reporter activity, as previously described (20). Luciferase was normalized to the internal control β-galactosidase activity. […]

IRF-1 = assay: Western blot of IRF-1 in total cell lysates of RSV-infected A549 cells; assay type: cell-based, human; conditions: whole cell extracts, RSV 12 hours, 400 μM
Procedure: (§2) Western Immunoblot. Total cell lysates and cytoplasmic and nuclear proteins were prepared as previously described, fractionated by SDS-PAGE and transferred to PVDF membrane (20). Membranes were blocked with 5% albumin in TBS-Tween and incubated overnight with a rabbit polyclonal antibody to IRF-1, -3 and -7 (Santa Cruz Biotech, Santa Cruz, Calif.). For secondary detection, a horseradish-coupled anti-rabbit or anti-mouse antibody was used in the enhanced chemiluminescence assay (Amersham Pharmacia Biotec, Arlington Heights, Ill.).

IRF-7 = assay: Western blot of IRF-7 in total cell lysates of RSV-infected A549 cells; assay type: cell-based, human; conditions: whole cell extracts, RSV 12 hours, 400 μM
Procedure: as §2

IRF-1 mRNA = assay: Northern blot of IRF-1 mRNA in RSV-infected A549 cells; assay type: cell-based, human; conditions: 400 μM
Procedure: (§3) Northern Blot. Total RNA was extracted from control and infected A549 cells by the acid guanidium thiocyanate-phenol chloroform method (18). Twenty micrograms of RNA were fractionated on a 1.2% agarose-formaldehyde gel, transferred to nylon membranes and hybridized to a radiolabeled RANTES, IRF-1, -3 and -7 cDNAs, as previously described (19). Hybridization temperature for all probes was 55° C. After washing, membranes were exposed for autoradiography using Kodak XAR film at −70° C. using intensifying screens. After exposure, membranes were stripped and rehybridized with a β-actin probe.

IRF-7 mRNA = assay: Northern blot of IRF-7 mRNA in RSV-infected A549 cells; assay type: cell-based, human; conditions: 400 μM
Procedure: as §3

human IRF-1 promoter = assay: IRF-1 promoter luciferase reporter in A549 cells; assay type: cell-based
Procedure: (§4) Cell transfection. To investigate IRF-1 and -7 gene transcription, A549 cells were transiently transfected with the IRF-1 or -7 promoter, linked to the luciferase reporter gene. Logarithmically growing A549 cells were transfected in triplicate in 60 mm petri dishes by DEAE-Dextran, as previously described (20). Cells were incubated in 2 ml of HEPES buffered DMEM (10 mM Hepes, pH 7.4) containing 20 μl of 60 mg/ml DEAE-Dextran (Amersham Pharmacia Biotec, Arlington Heights, Ill.) premixed with 6 μg of either IRF-1 or -7 plasmids and 1 μg CMV-β galactosidase internal control plasmid. After 3 hours, media was removed and 0.5 ml of 10% (v/v) DMSO in PBS was added to the cells for 2 minutes. Cells were washed with PBS and cultured overnight in 10% FBS/DMEM. The next morning, cells were infected with RSV and cells were lysed at different times post-infectionto measure independently luciferase and galactosidase reporter activity, as previously described (20). Luciferase was normalized to the internal control galactosidase activity. All experiments were performed in duplicate or triplicate.

human IRF-7 promoter = assay: IRF-7 promoter luciferase reporter in A549 cells; assay type: cell-based
Procedure: as §4

STAT-1 = assay: Western blot of phosphorylated and total nuclear STAT-1 in RSV-infected A549 cells; assay type: cell-based, human; conditions: nuclear proteins, 400 μM
Procedure: Western Immunoblot. Nuclear proteins were prepared as previously described, fractionated by SDS-PAGE and transferred to PVDF membrane (20). Membranes were blocked with 5% albumin in TBS-Tween and incubated overnight with antibody recognizing the tyrosine phosphorylated form of STAT-1 and STAT-3 (Santa Cruz Biotech, Santa Cruz, Calif.). Membranes were stripped and reprobed with antibodies to STAT-1 and STAT-3 (Santa Cruz Biotech, Santa Cruz, Calif.). For secondary detection, a horseradish-coupled anti-rabbit or anti-mouse antibody was used (Santa Cruz Biotech, Santa Cruz, Calif.) in the enhanced chemiluminescence assay (Amersham Life Science, Arlington Heights, Ill.).

NF-κB = assay: RSV-induced NF-κB nuclear translocation and DNA-binding in A549 cells; assay type: cell-based, human; conditions: data not shown
β-actin = β-actin mRNA (Northern blot) in A549 cells; assay type: cell-based, human; conditions: 400 μM, compared to untreated cells
Procedure: as §3

COc1ccc(O)c(C(C)(C)C)c1 [BHA, butylated hydroxyanisol]
effectiveness in reducing RSV-induced RANTES secretion, compared among the antioxidants (RANTES [1]): most effective | RSV-induced RANTES production (RANTES [1]; 400 μM, 24 hours, ELISA): significantly block | effectiveness in reducing RSV-induced RANTES secretion, compared among the antioxidants (RANTES [2]): most effective | RSV-induced RANTES production (RANTES [2]; 400 μM, 24 hours, ELISA): significantly reduced | RSV-induced luciferase activity (RANTES promoter) (human RANTES promoter): almost completely abolished | RSV-induced IRF-1 protein synthesis (IRF-1): almost completely abolished | RSV-induced IRF-7 protein synthesis (IRF-7): almost completely abolished | IRF-1 mRNA accumulation (IRF-1 mRNA; 6 and 12 hours post-infection): almost completely blocked | IRF-1 mRNA accumulation (IRF-1 mRNA; 24 hours post-infection): significantly reduced | IRF-7 mRNA accumulation (IRF-7 mRNA; 6 and 12 hours post-infection): almost completely blocked | IRF-7 mRNA accumulation (IRF-7 mRNA; 24 hours post-infection): significantly reduced | basal level of transcription (IRF-1 promoter) (human IRF-1 promoter; A549 cells): did not affect | RSV-induced luciferase activity (IRF-1 promoter) (human IRF-1 promoter; RSV 12 hours, 400 μM): completely abolished | basal level of transcription (IRF-7 promoter) (human IRF-7 promoter; A549 cells): did not affect | RSV-induced luciferase activity (IRF-7 promoter) (human IRF-7 promoter; RSV 6 hours, 400 μM): completely abolished | RSV-induced STAT-1 phosphorylation (STAT-1): completely blocked | RSV-inducible nuclear STAT-1 form (STAT-1): disappears | nuclear STAT-1 form present in uninfected and infected cells (STAT-1): not affected | RSV-induced NF-κB nuclear translocation and DNA-binding (NF-κB): did not affect | levels of the housekeeping gene β-actin (β-actin): does not affect; also recorded: not systematically reduced
